Data on two compounds can be found in patent US20090060871A1, “ADMINISTRATION OF AGONIST-ANTAGONIST IN OPIOID-DEPENDENT PATIENTS” (priority 2006, published 2009).

Structures are written as SMILES. Counter-ions that a name gives are not always drawn.

The conditions of series [1]: in vivo; cited from earlier work.
For series [2] the following is noted: water; cited from earlier work.
The subject of the next series is opioid-dependent patient. Kind of series: Clinical case reports: nalbuphine 2 cc IM twice a day in opioid-dependent patients (Examples 1A-7A). Format: in vivo, human.
In series [3] the test system is HIV-infected, opioid-dependent patient. Kind of series: Average adherence to ARV regimen during nalbuphine administration. It counts as in vivo, human. How it is done: Compliance with a treatment regimen and in particular to an ARV regimen is determined using an “average adherence” value calculated using the formula: […]
where A is the number of tablets or gel capsules required by the protocol to be administered to a patient over four weeks; and B is the number of tablets or gel capsules prescribed but actually not taken by a patient over the same period of time.

The test system of series [4] is IDU (injectable drug users). Kind of series: Pilot study of Nalbuphine administration to IDU (injectable drug users), Example 8A. It counts as in vivo, human. From the text: A pilot study was initiated to evaluate treatment with Nalbuphine (agonist-antagonist) in the context of HIV prevention, treatment and care interventions. The first pilot study of the effects of Nalbuphine administration to IDU (injectable drug users) started at the 8th of August 2006 in Moscow. It is still being conducted on outpatient basis.
Duration of individual treatment varied from patient to patient (from 10 days to 180 days) depending on patient's condition, life-style, substance abuse history, etc. The frequency of administration varied from 20 mg per patient bid (initially) to 20 mg per patient per week (after 30 days).
The objective of the study is to compare this method with the other methods of drug treatment typical for Russia, and to measure the effects of out-patient Nalbuphine administration using following criteria:
The clinical trial included 19 clients, all with simultaneous codeine addiction, 7 patients living with AIDS, 4 being multiple substance users. In all cases, the patient was a difficult case (5-11 years of heroin abuse). 3 of the patients had very high (3-5 g a day) doses of heroin abuse.
All patients were between 18-50 years old, diagnosed with opiate abuse (in some cases in combination with other substances). They were admitted to the study after three days of opiate abstinence.
Patients with psychiatric, oncological, diabetic conditions, chronic kidney illnesses, and pregnancy were excluded from the study.

The subject of series [5] is opioid-dependent patients. The series can be described thus: Study of 28 patients who received Nalbuphine for up to 6 months, Example 9A. It counts as in vivo, human. The source says: The results of a study of 28 patients who received Nalbuphine for up to 6 months are as follows.
Where [6] appears, read: Example 1A, M., 2 cc IM twice a day for 48 days.
The mark [7] stands for this setting: Example 3A, N., 2 cc IM twice a day for 30 days.

Turning to `Oc1ccc2c3c1O[C@H]1[C@@H](O)CCC4(O)C(C2)N(CC2CCC2)CCC314` (stereo partly drawn) [nalbuphine hydrochloride, 17-(cyclobutylmethyl)-4,5α-epoxymorphinan-3,6α-14-triol hydrochloride], the plasma half life entry in series [1] is “about five”. Further, in series [2], the solubility entry is reported as “Water-soluble”.

For `Oc1ccc2c3c1OC1[C@@H](O)CCC4(O)[C@@H](C2)N(CC2CCC2)CC[C@]314` (stereo partly drawn) [nalbuphine, 17-(cyclobutylmethyl)-4,5α-epoxymorphinane-3,6α-14-triol], the “aggravation of opportunistic infections or HCV” value in the series with opioid-dependent patient (setting [6]) was “No aggravation”; in the series on opioid-dependent patient (Example 3A, N.) it was “No aggravation”; in the series with opioid-dependent patient (Example 5A, V.), “No aggravation”; with opioid-dependent patient (Example 6A, L.) it was “No aggravation”. Also, the craving result with opioid-dependent patient (setting [6]) is reported as “profound decrease in craving”. In addition, the “desire for drug use” value with opioid-dependent patient (Example 2A, D., 2 cc IM twice a day for 52 days) was “denies desire for drug use”. Moreover, the cravings for drugs result with opioid-dependent patient (setting [7]) is given as “cravings for drugs decreased”. In addition, the “pain (chronic osteomyelitis)” value in the series with opioid-dependent patient (setting [7]) is recorded as “pain relief”. In addition, in the series with opioid-dependent patient (Example 5A, V.), the alcohol problems result is “problems with alcohol persist”. Also, the drug cravings result in the series on opioid-dependent patient (Example 6A, L.) was “drug cravings decreased”. Besides, the attempts of suicide entry with opioid-dependent patient (Example 6A, L., multiple earlier attempts) is given as “No attempts of suicide”. Also, the “Average adherence to ART during April” value in series [3] (Example 3A, N., 98% in January-March 2006 before nalbuphine) turned out to be 100%; in series [3] (Example 4A, S., male, Stocrin+Combivir, 76% in January-March 2006 before nalbuphine), 97%; in series [3] (Example 5A, V., Stocrin and Combivir, 70% in January-March 2006 before nalbuphine), 95%; in series [3] (Example 6A, L., Efavirenz and Combivir, 68% in January-March 2006 before nalbuphine), 93%; in series [3] (Example 7A, S., female, 98% in January-March 2006 before nalbuphine) it was 93%. Further, the “side effects or drug-drug interactions” value in series [4] (19 clients) is on record as “No side effects or drug-drug interactions were observed”. Further, in series [4] (all HIV-positive patients), the “involvement/adherence to HIV treatments” value was “higher involvement/adherence”. In addition, the quality of life entry in series [4] (all patients) is reported as “improved quality of life”; in series [5] (28 patients) it was “improved”. In addition, the “patients who stopped heroin and codeine consumption” value in series [4] (of 19 clients, 20 mg bid initially to 20 mg per week, 10 to 180 days, outpatient) is 18 patients. Besides, in series [5] (28 patients), the “correlation between administrated dose and heroin consumption” value was “inverse correlation”. Also, the “overdose, side effects or new infections associated with injectable drugs” value in series [5] (28 patients) is recorded as “no observed instances of overdose, side effects or new infections”. Moreover, the “people staying clean (periodic urine tests for opiates) while on therapy” value in series [5] (28 patients, up to 6 months) is recorded as “two thirds”. In series [5] (28 patients, up to 6 months), the “reduction of total heroin and other opiate consumption” value is reported as “up to 75%”. For the same compound, the cravings for drug result in series [5] (all patients) is given as “clear reduction of cravings for drug”. In addition, the “compliance (adherence) to ARVT” value in series [5] (patients already receiving ARVT) is on record as “nearly perfect compliance (adherence)”.
